Measured values: US9416126B2, “Compounds inhibiting leucine-rich repeat kinase enzyme activity” (Merck Sharp & Dohme Corp., priority 2013, dated 2016)

Molecular target: LRRK2(G2019S mutation, GST-LRRK2(amino acids 970-2527)) (Homo sapiens (Human), UniProt Q5S007, G2019S)
Assay: LRRK2 Km ATP LanthaScreen Assay
Format: biochemical
Conditions: Km ATP (184 μM ATP solution), G2019S LRRK2, mean IC50
Procedure: Unless otherwise noted, all LRRK2 IC50 data presented in tables refers to the LRRK2 Km ATP LanthaScreen™ Assay that is described in the Biological Assay section.
The data presented for the 5 mM and Km ATP LanthaScreen™ Assay represents mean IC50 values based on several test results and may have reasonable. deviations depending on the specific conditions and reagents used. Reagents for the LRRK2 5 mM and Km ATP LanthaScreen™ Assay were purchased from Life Technologies Corporation.
LRRK2 Km ATP LanthaScreen™ Assay
a) 400 nl of a 1:2.15 serial dilution of test compound(98 μM top assay concentration) is spotted via Labcyte Echo to certain wells in a 384 well black, untreated plate. Control wells contain 400 nl of either DMSO or 400 nl of a known inhibitor in DMSO.
b) 10 μl of a 2.5 nM LRRK2(G2019S mutation, GST-LRRK2(amino acids 970-2527)) enzyme solution in 1× assay buffer(50 mM Tris pH 8.5, 10 mM MgCl2, 0.01% Brij-35, 1 mM EGTA, 2 mM DTT, 0.05 mM NaVO4) is added to all wells.
c) A 30 minute room temperature incubation is followed by addition of 10 μl of 800 nM fluorescein labeled LRRKtide peptide substrate and 184 μM ATP solution in 1× assay buffer to all wells.
d) After a 60 minute room temperature incubation, 20 μl of TR-FRET Dilution Buffer(Invitrogen PV3756B) containing 4 nM Tb-labeled anti-phospho LRRKtide antibody and 20 mM EDTA is added to all wells.
e) Plates are incubated at room temperature for 1 hour and read on an Envision™ multi-mode plate reader with LanthaScreen™ settings. Results are analysed using Assay Data Analyzer.

Sequence of LRRK2(G2019S mutation, GST-LRRK2(amino acids 970-2527)) (Q5S007 970-2527 G2019S): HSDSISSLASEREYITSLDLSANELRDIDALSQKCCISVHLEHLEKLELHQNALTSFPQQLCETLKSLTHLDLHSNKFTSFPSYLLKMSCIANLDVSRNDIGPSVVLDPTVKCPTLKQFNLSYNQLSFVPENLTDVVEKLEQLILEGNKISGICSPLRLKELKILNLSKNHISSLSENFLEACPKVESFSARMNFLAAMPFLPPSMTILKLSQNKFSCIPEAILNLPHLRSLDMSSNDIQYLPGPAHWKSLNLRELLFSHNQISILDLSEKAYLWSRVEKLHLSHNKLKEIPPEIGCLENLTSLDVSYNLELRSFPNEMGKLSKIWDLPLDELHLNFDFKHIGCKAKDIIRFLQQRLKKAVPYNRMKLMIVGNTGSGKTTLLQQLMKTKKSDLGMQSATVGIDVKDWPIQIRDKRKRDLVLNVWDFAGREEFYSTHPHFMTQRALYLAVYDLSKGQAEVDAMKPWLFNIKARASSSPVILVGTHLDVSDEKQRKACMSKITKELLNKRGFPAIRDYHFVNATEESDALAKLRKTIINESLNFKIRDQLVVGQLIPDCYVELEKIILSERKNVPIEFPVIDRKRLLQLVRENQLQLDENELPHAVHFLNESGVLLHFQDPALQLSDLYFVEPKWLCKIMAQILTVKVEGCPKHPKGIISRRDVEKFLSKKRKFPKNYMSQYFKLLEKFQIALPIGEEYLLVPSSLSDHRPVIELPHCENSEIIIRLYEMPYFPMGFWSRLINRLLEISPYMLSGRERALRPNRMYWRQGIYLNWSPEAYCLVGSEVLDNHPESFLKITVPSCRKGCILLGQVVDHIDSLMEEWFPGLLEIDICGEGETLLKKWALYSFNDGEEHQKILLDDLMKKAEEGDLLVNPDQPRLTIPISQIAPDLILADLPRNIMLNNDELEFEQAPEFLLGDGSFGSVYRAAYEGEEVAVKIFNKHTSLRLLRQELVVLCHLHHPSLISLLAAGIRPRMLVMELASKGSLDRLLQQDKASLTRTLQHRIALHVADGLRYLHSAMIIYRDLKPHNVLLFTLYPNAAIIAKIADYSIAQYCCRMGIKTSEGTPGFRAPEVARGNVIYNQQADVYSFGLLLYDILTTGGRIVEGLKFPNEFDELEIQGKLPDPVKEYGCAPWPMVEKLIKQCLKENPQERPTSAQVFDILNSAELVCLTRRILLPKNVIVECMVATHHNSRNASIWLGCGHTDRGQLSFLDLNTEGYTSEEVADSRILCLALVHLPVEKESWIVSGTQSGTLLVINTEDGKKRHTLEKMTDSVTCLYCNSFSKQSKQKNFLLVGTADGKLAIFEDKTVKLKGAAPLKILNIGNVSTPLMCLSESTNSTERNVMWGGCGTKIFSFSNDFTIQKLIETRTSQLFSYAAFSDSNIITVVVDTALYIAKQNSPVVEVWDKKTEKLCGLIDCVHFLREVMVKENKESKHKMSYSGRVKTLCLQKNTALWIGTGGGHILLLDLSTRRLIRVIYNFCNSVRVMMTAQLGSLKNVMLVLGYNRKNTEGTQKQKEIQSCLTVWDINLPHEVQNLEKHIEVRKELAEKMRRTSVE

| Compound | IC50 [nM] |
| --- | --- |
| CC(C)Oc1cc2c(-c3cc(N4CCN(C(C)C)C(=O)C4)ncn3)n[nH]c2cc1F [Example D69] | 3.09 |
| CC(C)Oc1cc2c(-c3cc(N4CCN(C)C(=O)C4)ncn3)n[nH]c2cc1F [Example D70] | 2.19 |
| COCCN1CCN(c2cc(-c3n[nH]c4cc(F)c(OC(C)C)cc34)ncn2)CC1=O [Example D71] | 1.63 |
| CC(C)Oc1cc2c(-c3cc(N4C[C@@H](C)N(C)[C@@H](C)C4)ncn3)n[nH]c2cc1F [Example D72] | 1.33 |
| COc1ccc2[nH]nc(-c3cc(N4C[C@H](F)[C@@H](F)C4)ncn3)c2c1 [Example E2] | 68.6 |
| COc1ccc2[nH]nc(-c3cc(N4C[C@@H](C)O[C@@H](C)C4)ncn3)c2c1 [Example E3] | 29.3 |
| COc1ccc2[nH]nc(-c3cc(N4CCN(S(C)(=O)=O)CC4)ncn3)c2c1 [Example E4] | 35.4 |
| COc1ccc2[nH]nc(-c3cc(N4CCN(C(C)=O)CC4)ncn3)c2c1 [Example E5] | 74.5 |
| COc1ccc2[nH]nc(-c3cc(N4CC5CCC(C4)O5)ncn3)c2c1 [Example E6] | 148 |
| COc1ccc2[nH]nc(-c3cc(N4CCN(C)CC4)ncn3)c2c1 [Example E7] | 28.2 |
| CCN1CCN(c2cc(-c3n[nH]c4ccc(OC)cc34)ncn2)CC1 [Example E8] | 24.3 |
| COc1ccc2[nH]nc(-c3cc(N4CCN(C5CC5)CC4)ncn3)c2c1 [Example E9] | 25.9 |
| COc1ccc2[nH]nc(-c3cc(N4CCNC(=O)C4)ncn3)c2c1 [Example E10] | 101 |
| CCN1CCN(c2cc(-c3n[nH]c4ccc(OC)cc34)ncn2)CC1=O [Example E11] | 78.3 |
| COc1ccc2[nH]nc(-c3cc(N4CCO[C@H](C)C4)ncn3)c2c1 [Example E12] | 28.5 |
| COc1ccc2[nH]nc(-c3cc(N4CCO[C@@H](C)C4)ncn3)c2c1 [Example E13] | 76.9 |
| CCOc1ccc2[nH]nc(-c3cc(N4CCN(S(C)(=O)=O)CC4)ncn3)c2c1 [Example F1] | 15.4 |
| CCOc1ccc2[nH]nc(-c3cc(N4C[C@@H](C)O[C@@H](C)C4)ncn3)c2c1 [Example F2] | 12.8 |
| CCOc1ccc2[nH]nc(-c3cc(N4C[C@H](F)[C@@H](F)C4)ncn3)c2c1 [Example F3] | 26.6 |
| CCOc1ccc2[nH]nc(-c3cc(N4CCN(C)CC4)ncn3)c2c1 [Example F4] | 26.9 |
| CCOc1ccc2[nH]nc(-c3cc(N4CCN(C5CC5)CC4)ncn3)c2c1 [Example F5] | 16.7 |
| CCOc1ccc2[nH]nc(-c3cc(N4CCNC(=O)C4)ncn3)c2c1 [Example F6] | 63.9 |
| CCOc1ccc2[nH]nc(-c3cc(N4CCN(C)C(=O)C4)ncn3)c2c1 [Example F7] | 37.1 |
| CCOc1ccc2[nH]nc(-c3cc(N4CCN(CC)CC4)ncn3)c2c1 [Example F8] | 12.6 |
| CCOc1ccc2[nH]nc(-c3cc(N4CCN(CC)C(=O)C4)ncn3)c2c1 [Example F9] | 16.7 |

| Compound | IC50 [nM] |
| --- | --- |
| CCOc1ccc2[nH]nc(-c3cc(N4CC5CCC(C4)O5)ncn3)c2c1 [Example F10] | 32.7 |
| CCOc1ccc2[nH]nc(-c3cc(N4CCN(C(C)=O)CC4)ncn3)c2c1 [Example F11] | 18 |
| CCOc1ccc2[nH]nc(-c3cc(N4CCO[C@H](C)C4)ncn3)c2c1 [Example F12] | 10.5 |
| CCOc1ccc2[nH]nc(-c3cc(N4CCO[C@@H](C)C4)ncn3)c2c1 [Example F13] | 41.2 |
| COCCOc1ccc2[nH]nc(-c3cc(N4CCN(S(C)(=O)=O)CC4)ncn3)c2c1 [Example G1] | 64.7 |
| COCCOc1ccc2[nH]nc(-c3cc(N4C[C@@H](C)O[C@@H](C)C4)ncn3)c2c1 [Example G2] | 76.6 |
| COCCOc1ccc2[nH]nc(-c3cc(N4C[C@H](F)[C@@H](F)C4)ncn3)c2c1 [Example G3] | 138 |
| COCCOc1ccc2[nH]nc(-c3cc(N4CCN(C)CC4)ncn3)c2c1 [Example G4] | 67.2 |
| COCCOc1ccc2[nH]nc(-c3cc(N4CCN(C5CC5)CC4)ncn3)c2c1 [Example G5] | 97 |
| COCCOc1ccc2[nH]nc(-c3cc(N4CCNC(=O)C4)ncn3)c2c1 [Example G6] | 136 |
| COCCOc1ccc2[nH]nc(-c3cc(N4CCN(C)C(=O)C4)ncn3)c2c1 [Example G7] | 69 |
| CCN1CCN(c2cc(-c3n[nH]c4ccc(OCCOC)cc34)ncn2)CC1 [Example G8] | 97 |
| CCN1CCN(c2cc(-c3n[nH]c4ccc(OCCOC)cc34)ncn2)CC1=O [Example G9] | 107 |
| COCCOc1ccc2[nH]nc(-c3cc(N4CCO[C@H](C)C4)ncn3)c2c1 [Example G10] | 42.8 |
| COCCOc1ccc2[nH]nc(-c3cc(N4CCO[C@@H](C)C4)ncn3)c2c1 [Example G11] | 101 |
| COCCOc1ccc2[nH]nc(-c3cc(N4CC5CCC(C4)O5)ncn3)c2c1 [Example G12] | 154 |
| COCCOc1ccc2[nH]nc(-c3cc(N4CCN(C(C)=O)CC4)ncn3)c2c1 [Example G13] | 128 |
| COC[C@@H](C)Oc1ccc2[nH]nc(-c3cc(N4CCOCC4)ncn3)c2c1 [Example H1] | 56.2 |
| COC[C@@H](C)Oc1ccc2[nH]nc(-c3cc(N4C[C@@H](C)O[C@@H](C)C4)ncn3)c2c1 [Example H2] | 39.1 |
| COC[C@@H](C)Oc1ccc2[nH]nc(-c3cc(N4CCO[C@H](C)C4)ncn3)c2c1 [Example H3] | 35.5 |
| COC[C@H](C)Oc1ccc2[nH]nc(-c3cc(N4C[C@@H](C)O[C@@H](C)C4)ncn3)c2c1 [Example H5] | 1.7 |
| COC[C@H](C)Oc1ccc2[nH]nc(-c3cc(N4CCN(S(C)(=O)=O)CC4)ncn3)c2c1 [Example H6] | 4.5 |
| COC[C@H](C)Oc1ccc2[nH]nc(-c3cc(N4CCN(C)CC4)ncn3)c2c1 [Example H7] | 2.08 |
| COC[C@H](C)Oc1ccc2[nH]nc(-c3cc(N4CC5CCC(C4)O5)ncn3)c2c1 [Example H8] | 9.93 |
| COC[C@H](C)Oc1ccc2[nH]nc(-c3cc(N4CCC5(CCC(=O)N5)CC4)ncn3)c2c1 [Example H9] | 4.36 |

| Compound | IC50 [nM] |
| --- | --- |
| COC[C@H](C)Oc1ccc2[nH]nc(-c3cc(N4CCC5(CC4)CC(=O)N(C)C5)ncn3)c2c1 [Example H10] | 2.87 |
| COC[C@H](C)Oc1ccc2[nH]nc(-c3cc(N4CCC5(CC4)CNC(=O)C5)ncn3)c2c1 [Example H11] | 2.85 |
| COC[C@H](C)Oc1ccc2[nH]nc(-c3cc(N4CC[C@@H](OC)C4)ncn3)c2c1 [Example H12] | 4.8 |
| COC[C@H](C)Oc1ccc2[nH]nc(-c3cc(N4CC[C@H](OC)C4)ncn3)c2c1 [Example H13] | 5.27 |
| COC[C@H](C)Oc1ccc2[nH]nc(-c3cc(N4CCC5(CCCO5)CC4)ncn3)c2c1 [Example H14] | 2.02 |
| COC[C@H](C)Oc1ccc2[nH]nc(-c3cc(N4CCC5(CCN(C)C5=O)CC4)ncn3)c2c1 [Example H15] | 3.71 |
| COC[C@H](C)Oc1ccc2[nH]nc(-c3cc(N4CCC5(CCNC5=O)CC4)ncn3)c2c1 [Example H16] | 2.83 |
| COC[C@H](C)Oc1ccc2[nH]nc(-c3cc(N4CCO[C@H](C)C4)ncn3)c2c1 [Example H17] | 2.79 |
| c1cnc(-c2ccc3[nH]nc(-c4cc(N5CCOCC5)ncn4)c3c2)cn1 [Example I1] | 34.7 |
| CS(=O)(=O)N1CCN(c2cc(-c3n[nH]c4ccc(-c5cnccn5)cc34)ncn2)CC1 [Example I2] | 19.2 |
| CC(C)Oc1ccc2[nH]nc(-c3cc(N4CCC(O)CC4)ncn3)c2c1 [Example J1] | 5.9 |
| CC(C)Oc1ccc2[nH]nc(-c3cc(N4CCN(CCO)CC4)ncn3)c2c1 [Example J2] | 7.4 |
| CC(C)Oc1ccc2[nH]nc(-c3cc(N4CCCCC4)ncn3)c2c1 [Example J3] | 10.6 |
| CC(C)Oc1ccc2[nH]nc(-c3cc(N4CCC4)ncn3)c2c1 [Example J4] | 7.9 |
| CC(C)Oc1ccc2[nH]nc(-c3cc(N4CCCC4)ncn3)c2c1 [Example J5] | 13.9 |
| CC(C)Oc1ccc2[nH]nc(-c3cc(N4C[C@@H](C)O[C@@H](C)C4)ncn3)c2c1 [Example J6] | 7.8 |
| CC(C)Oc1ccc2[nH]nc(-c3cc(N4C[C@H](O)[C@@H](N(C)C)C4)ncn3)c2c1 [Example J7] | 15.3 |
| CO[C@H]1CN(c2cc(-c3n[nH]c4ccc(OC(C)C)cc34)ncn2)C[C@@H]1O [Example J8] | 18.6 |
| CC(C)Oc1ccc2[nH]nc(-c3cc(N4CCO[C@H](C)C4)ncn3)c2c1 [Example J9] | 9.2 |
| CC(C)Oc1ccc2[nH]nc(-c3cc(N4C[C@H](F)[C@@H](F)C4)ncn3)c2c1 [Example J10] | 11.1 |
| CC(C)Oc1ccc2[nH]nc(-c3cc(N4CCCN(S(C)(=O)=O)CC4)ncn3)c2c1 [Example J11] | 51.3 |
| CC(C)Oc1ccc2[nH]nc(-c3cc(N4CC(n5cccn5)C4)ncn3)c2c1 [Example J12] | 22.6 |
| CC(C)Oc1ccc2[nH]nc(-c3cc(N4CC[S+]([O-])CC4)ncn3)c2c1 [Example J13] | 21 |
